Measured values: paper PMC3937006, “Synergism of peptide receptor-targeted Auger electron radiation therapy with anti-angiogenic compounds in a mouse model of neuroendocrine tumors” (EJNMMI Research, 2014)

Experiments:
[1] = system: pancreatic tumors and other organs of Rip1Tag2 mice; format: in vivo, mouse
Protocol: Male and female Rip1Tag2 mice, 19 to 32 g of weight and 11.6 ± 0.7 weeks old, were stratified according to their age and randomly assigned to the different cohorts. […] Both vatalanib and imatinib were provided by Novartis (Basel, Switzerland). Days (0, 3, 5, and 7 days) after the beginning of vatalanib or imatinib treatment, the mice were injected through the tail vein with 185 kBq (10 ng peptide/2 pmol) [Lys^40(Ahx-DTPA-^111In)NH2]-exendin-4 (^111In-DTPA-exendin-4) in a 100-μl 1% human serum albumin solution diluted in 0.9% NaCl. At 4 h after injection, the mice were sacrificed under isoflurane and CO2 anesthesia. The organs, blood, and tumors were collected, weighed, and the radioactivity in these samples was determined using a γ-counter. The percentage of injected activity (IA)/g tissue was calculated for each tissue.

GLP-1R = assay: GLP-1 receptor autoradiography of tumors after vatalanib treatment; format: in vivo, mouse; details: Rip1Tag2 mice, vatalanib 100 mg/kg p.o. for 4 days, n = 4; 32 pM [125I]-GLP-1; p = 0.98 vs saline control
Protocol: GLP-1 receptor autoradiography was used to quantify the GLP-1 receptors in the mouse tumors in the presence or absence of vatalanib treatment. The Rip1Tag2 mice were treated with vatalanib as described before for 4 days and sacrificed on day 5. During necropsy, the tumors were snap frozen on dry ice. Tumor sections (20-μm thick) were incubated for 2 h at ambient temperature in the presence of 32 pM [^125I]-GLP-1 (2,000 Ci/mmol). The incubation solution was 170 mM Tris-HCI buffer (pH 8.2) containing 1% bovine serum albumin, bacitracin (40 μg/ml) and MgCl2 (10 mM) to inhibit endogenous proteases. Non-specific binding was determined by adding 100-nM solution of unlabeled GLP-1. The incubated sections were washed twice for 5 min in cold incubation buffer containing 0.25% bovine serum albumin, then in buffer alone, and dried quickly. Finally, the sections were apposed to Biomax MR films (Kodak, Rochester, NY, USA) and exposed for 1 week in X-ray cassettes.
In all the experiments, the autoradiograms were quantified using a computer-assisted image processing system. Tissue standards for iodinated compounds were used for this purpose.

[2] = system: CD31-positive blood vessels in tumors of Rip1Tag2 mice; assay: Microvessel density, CD31 immunohistochemistry on tumor sections; format: in vivo, mouse; details: for microvessel density, CD31-positive blood vessels (median): Rip1Tag2 mice after 7-day therapy, radiopeptide 1.1 MBq, natIn-exendin-4 40 pmol, kinase inhibitor 100 mg/kg p.o.
[3] = system: tumor β-cells of Rip1Tag2 mice; assay: Tumor cell apoptosis, TUNEL assay; format: in vivo, mouse; details: Rip1Tag2 mice after 7-day therapy, vatalanib study
[4] = system: pancreatic neuroendocrine tumors (pNET) of Rip1Tag2 mice; assay: Therapy study, tumor volume in Rip1Tag2 mice; details: day 8, radiopeptide 1.1 MBq i.v. once, kinase inhibitor 100 mg/kg p.o. daily for 7 days
[5] = system: GLP-1 receptor-expressing tumor cells established from pancreatic tumors of Rip1Tag2 mice; format: cell-based, mouse
Protocol: A nuclei isolation kit (Nuclei EZ Prep Kit, Sigma-Aldrich Chemie Gmbh, Steinheim, Germany) was used to separate and quantify the amount of radioactivity stored in the nuclei. The preparation was done according to the manufacturer's instructions. The GLP-1 receptor-expressing tumor cells were established from pancreatic tumors of Rip1Tag2 mice, as described previously. The cells were seeded at a density of 2 × 10^7 cells in Petri dishes and incubated overnight. Afterward, 25 pmol ^111In-DTPA-exendin-4 (2.5 MBq) was added to the Petri dishes and incubated at 37°C. The internalization was stopped at 2, 4, and 24 h by removing the medium and by washing the cells four times with 5-ml ice-cold phosphate-buffered saline. Ice-cold nuclei EZ lysis buffer (2 ml) was added, and the cells were scraped with a small bladed cell scraper. The cell lysate was transferred to a separate 15-ml centrifuge tube and set on ice for 5 min. To collect the nuclei, the cell lysate was centrifuged three times at 500 g for 5 min at 4°C. The culture medium, the clear supernatant (cytoplasmatic supernatant), and nucleus pellets were measured radiometrically with a γ-counter.

[6] = system: pancreatic tumors and other organs of Rip1Tag2 mice; details: mouse, in vivo; cited from earlier work
Description: Thus, the combination with an anti-angiogenic drug that has a different toxicity profile than the radiopeptide reduces the amount of [Lys^40(Ahx-DTPA-^111In)NH2]-exendin-4 and is a more nephroprotective treatment. This is relevant because kidney ...

[7] = system: pancreas, lungs, bowel and kidneys of Rip1Tag2 and C57/Bl6 mice; details: dose of 28 MBq; cited from earlier work
Description: (§1) We have shown in the Rip1Tag2 mouse model of pancreatic neuroendocrine tumors (pNET) that [Lys^40(Ahx-DTPA-^111In)NH2]-exendin-4 is suitable for molecular imaging of NETs using single-photon emission computed tomography (SPECT). pNETs could be detected down to a size of 1 mm in diameter. In a clinical pilot study, we could localize occult insulinomas that were not detectable using conventional imaging methods.

[8] = system: pancreatic neuroendocrine tumors (pNET) of Rip1Tag2 mice; details: injection of 28 MBq; cited from earlier work
Description: as §1

Molecule | effect on radiopeptide uptake in all the other organs ([1]; vatalanib 100 mg/kg p.o. daily up to 7 days) | reduction of radiopeptide uptake in the kidney ([1]; vatalanib 100 mg/kg p.o. daily, within 7 days, p < 0.001) [%] | decrease of specific tumor uptake of radiopeptide ([1]; within the first 5 days of vatalanib treatment) | expression of the GLP-1R on pancreatic tumors by autoradiography (GLP-1R) | microvessel density, CD31-positive blood vessels (median) [2] | number of apoptotic cells/0.1 mm^2 (median) [3] [cells/0.1 mm^2] | tumor volume treated/volume control (T/C) ratio [4] | internalized activity accumulated in the nucleus [5] | tumor uptake [6] [% IA/g tumor] | renal toxicity [7] | reduction of the tumor mass [8] [%] | effect of pre-treatment on uptake of the radiopeptide ([1]; imatinib 100 mg/kg p.o. daily, independent of organ or time point (0, 3, 5, 7 days)) | effect on tumor-associated vessels ([2]; imatinib 100 mg/kg p.o. for 7 days)
Clc1ccc(Nc2nnc(Cc3ccncc3)c3ccccc23)cc1 [vatalanib] | unaffected | 29.5 | more than 50% | 14,176 ± 5,958 dgm/min | 28 /mm^2 | 1.7 | 0.26 | – | – | – | – | – | –
[Lys^40(Ahx-DTPA-^111In)NH2]-exendin-4 | – | – | – | – | 77 /mm^2 | – | – | less than 5% | 287 ± 62 | significant renal radiation damage and consequent chronic renal failure | 94 | – | –
Cc1ccc(NC(=O)c2ccc(CN3CCN(C)CC3)cc2)cc1Nc1nccc(-c2cccnc2)n1 [imatinib] | – | – | – | – | – | – | – | – | – | – | – | did not affect the uptake | no apparent effect
